Test results: patent US20060165641A1, “Cosmetic compositions containing combinations of hydroxamate derivatives and antioxidants in a liposomal delivery system” (priority 2005, published 2006)
Where “and” joins values, the source holds several entries; their conditions need not be identical. Identical values can stand only once. Entries after “also recorded” stand apart in the source; their conditions may differ. Like-named read-outs stand apart in the source and are kept apart here. Each block holds one compound with its values, some of them ahead of it.

Key:
[1] = tested on: MMP 13; details: human chondrosarcoma cell line SW1353; cited from earlier work
[2] = Singlet oxygen scavenging test (Rose Bengal / iodide); details: % inhibition of control; compared with Coenzyme Q10 and green tea polyphenols
Protocol: Singlet forms of molecular oxygen are excited electronic configurations that are more reactive than the spin-restricted ground state. These forms can be generated in tissues by a variety of mechanisms. Particularly relevant to the skin is light-induced production of singlet oxygen. The singlet oxygen scavenging test is performed by irradiation of a reaction mixture that contains a photosensitizer dye (Rose Bengal) and iodide ions. The excited dye transfers its energy to ground state oxygen to generate singlet oxygen which in turn oxidizes iodide to I3^−. Production of I3^− is followed spectrophotometrically at 355 nm. If a test sample is a singlet oxygen quencher, it will decrease the rate of I3^− production.

[3] = UV-induced lipid peroxidation of lecithin liposomes (malonaldehyde); details: relative to EGCG taken as 100%
Protocol: The ability of NDGA to prevent UV-induced lipid peroxidation was measured in comparison to other antioxidant industry standards such as vitamin E, vitamin C and green tea polyphenols. The assay was performed by irradiating a suspension of lecithin liposomes with UV light for 4 hours, in the absence or in the presence of the different compounds. Malonaldehyde levels (a breakdown product of oxidized lipids) were measured in aliquots of the reaction mixture at different times. The rate of lipid oxidation was calculated from the increase in malonaldehyde content. Relative potency was calculated by taking epigallocatechin gallate (EGCG) as 100%. The antioxidant used in the comparisons are listed in the left column. The middle column lists the effective concentration at which the compound is 50% effective (EC 50) for inhibition of lipid peroxidation, while the right column lists the relative potency of the samples, as compared to polyphenol of tea, which is taken as 100.

[4] = tested on: AP-1 transcription factor; details: keratinocyte cell line HaCaT; very low levels; cited from earlier work
[5] = Hydroxyl radical scavenging (Fenton reaction, terephthalic acid); details: compared with green tea polyphenols, glutathione, vitamin E
Protocol: Hydroxyl radical scavenging of NDGA was measured by generation of .OH via the Fenton reaction with terephthalic acid as oxidizable substrate. Hydroxylation of terephthalic acid results in production of a fluorescent product. The rate of the reaction is determined by measuring the time course of fluorescence increase. If a test sample is a hydroxyl radical scavenger, it will decrease the reaction rate.
FIG. 6 is a table displaying hydroxyl radical scavenging activity of NDGA in comparison with green tea polyphenols (GTP) and Vitamin E, indicated in the left column.

[6] = tested on: MMP 13; details: primary human chondrocytes; cited from earlier work
[7] = target: MMP-9 (also known as gelatinase) (Homo sapiens, UniProt P14780); experiment: MMP inhibition, fluorogenic peptide assay; details: for MMP-9 inhibitory activity (in words): fluorogenic peptide assay
Protocol: In this system, the substrate is a fluorogenic peptide which, when cleaved by the MMP, undergoes an increase in fluorescence. The reaction is followed by monitoring the increase in the fluorescence of the reaction mixture for 2 hours. The rate of fluorescence increase is a measure of the reaction rate. The assay is performed in microtiter plates using triplicate wells per condition. The test sample contains specific MMP and the putative MMP inhibitor at several concentrations and the mean rate of the reaction at each of these conditions is compared to the reaction rate in the absence of inhibitor. The concentration of the test sample that inhibits the reaction rate (i.e., MMP inhibition) by 50% is defined as the “50% Inhibitory Concentration” or IC50.

[8] = tested on: normal human keratinocytes; experiment: UVB-induced TNF-α production by keratinocytes (ELISA, normalized to MTT viability); details: UVB 35 mJ/cm2, 24 hrs; low concentrations of NDGA
[9] = tested on: keratinocytes; experiment: Integrin expression of keratinocytes (ELISA); type: cell-based; details: 48 hrs
Protocol: (§1) In addition, SHA stimulates collagen and integrin synthesis of keratinocytes and fibroblasts. This was measured by treating keratinocyte or fibroblast cultures with SHA for 48 hrs and testing the medium for collagen and integrin secretion using appropriate antibodies using commercially available ELISA kits. The ELISA measures the secretion of collagen-1 and three different types of integrins, integrin alpha-2, -3 and -5. […] The data, presented in the right column, are expressed as a % stimulation of collagen secretion as compared to the control. […] Stimulation of collagen synthesis would provide more integrity to the dermis and would benefit in reducing wrinkles and will provide anti-aging benefits.
(§2) SHA can also stimulate integrin expression of fibroblasts and keratinocytes. […] In each table, that left column lists the various concentrations of SHA used in the tests, while the three right columns present integrin expression data, for different varieties of integrin, expressed as a % stimulation with respect to the control (0 mM SHA). […] Integrin is a vital component of the cell extracellular matrix that helps in cell adhesion and attachment. The increased amount of integrin helps cells to attach and grow, making skin firmer and more cellular. […]

[10] = tested on: normal human keratinocytes; experiment: Cornified envelope formation / differentiation of keratinocytes; type: cell-based; details: 0.15 mM calcium medium; relative to high calcium (1 mM) cultures
Protocol: To measure the induction of differentiation of keratinocytes, cultures of normal human keratinocytes were incubated with medium containing 0.15 mM calcium (low calcium prevents CE formation and keeps cells in growth mode). The cells were treated with different amounts of SHA and the amount of the highly cross-linked, detergent insoluble CE formation was quantified after dissolving the cells in 2% SDS/20 mM Dithiothrietol (DTT). The insoluble CE was centrifuged, resuspended in water and the optical density of the turbid solution was measured at 400 nm. The increase in turbidity indicates increased CE formation. […] The results, presented in the right column, are expressed relative to high calcium (1 mM) containing cultures.

[11] = tested on: normal human keratinocytes; experiment: UVB-induced PGE2 production by keratinocytes (ELISA, normalized to MTT viability); type: cell-based; details: UVB 30 mJ/cm2; SHA at as low as 5 uM
Protocol: The anti-inflammatory effect of SHA was measured by pretreating normal human keratinocytes with different concentrations of SHA for 24 hrs. The cells were UVB irradiated with a single sub-lethal dose of 30 mJ/cm2 using a Phillips TL20W12 tube. Cells were further incubated for 24 hrs with SHA and prostaglandin E2 (PGE2) levels in the supernatant media samples were analyzed by ELISA. 20 uM indomethacin was included as a positive control as an anti-inflammatory agent. The cell viability was also tested at the end of the 24 hr incubation period using the MTT metabolism method. […] The data was expressed as PGE2 production normalized to cell viability. PGE2, or prostaglandin E2, is an inflammatory mediator produced during inflammatory reactions in the skin. Any agents that inhibit the production of PGE2 will therefore have a beneficial effect of preventing inflammation (in other words, an anti-inflammatory effect). The top three bars display the effect of SHA at various concentrations on the UVB irradiated cells, the 4th bar the effect of indomethscin, the 5th bar the effect of UVB radiation on untreated cells, while the bottom bar is a control (untreated cells, not UVB irradiated).

[12] = target: mushroom tyrosinase; experiment: Inhibition of mushroom tyrosinase (tyrosine to DOPAchrome, OD475); type: biochemical
Protocol: The skin lightening effect of SHA was determined by measuring the inhibition of tyrosinase since tyrosinase is the enzyme that catalyzes the rate limiting steps in melanin synthesis. Inhibition of mushroom tyrosinase was assayed by measuring conversion of tyrosine to DOPAchrome (OD475) in the presence of varying concentrations of test sample. […] Thirty nanomolar SHA inhibited over 30% of the activity. The IC50 is 60 nM.

[13] = tested on: fibroblasts; experiment: Integrin expression of fibroblasts (ELISA); type: cell-based; details: 48 hrs
Protocol: as §1, §2

[14] = tested on: fibroblasts; experiment: Fibroblast collagen-1 secretion (ELISA); type: cell-based; details: 0.1 mM SHA, 48 hrs
Protocol: as §1

Sequence of MMP-9 (also known as gelatinase) (P14780 94-707, species assumed): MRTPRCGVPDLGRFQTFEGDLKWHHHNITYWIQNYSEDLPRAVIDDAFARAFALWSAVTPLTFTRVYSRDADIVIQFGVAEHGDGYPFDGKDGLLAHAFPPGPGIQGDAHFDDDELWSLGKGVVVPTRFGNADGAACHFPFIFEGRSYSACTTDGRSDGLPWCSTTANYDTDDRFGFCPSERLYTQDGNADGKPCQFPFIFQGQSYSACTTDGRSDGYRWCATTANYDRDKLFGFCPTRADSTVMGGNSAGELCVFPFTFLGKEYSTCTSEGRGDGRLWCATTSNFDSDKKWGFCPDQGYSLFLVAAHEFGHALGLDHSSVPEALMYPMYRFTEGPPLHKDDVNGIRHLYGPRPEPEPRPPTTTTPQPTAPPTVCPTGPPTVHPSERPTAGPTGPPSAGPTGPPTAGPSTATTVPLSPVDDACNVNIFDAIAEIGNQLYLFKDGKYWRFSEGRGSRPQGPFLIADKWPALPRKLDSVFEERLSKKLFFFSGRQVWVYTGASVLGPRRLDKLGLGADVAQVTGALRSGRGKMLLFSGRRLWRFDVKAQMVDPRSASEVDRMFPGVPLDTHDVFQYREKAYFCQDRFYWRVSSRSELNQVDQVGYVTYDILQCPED

IC50 ([7]; IC50 MMP-9 inhibition, fluorogenic peptide, 2 hours): ~232 µM and ~100 µM
MMP-9 inhibitory activity (in words) [7]: very high MMP-9 inhibitory activity
SMILES: CC(Cc1ccc(O)c(O)c1)C(C)Cc1ccc(O)c(O)c1 (stereo not drawn) [NDGA, nordihydroguaiaretic acid]
inhibition of TNF-α induced MMP 13 mRNA and protein induction [1]: inhibits TNF-α induced MMP 13 mRNA and protein induction
singlet oxygen scavenging activity [2]: very powerful singlet oxygen scavenger, equivalent to green tea polyphenols and better than coenzyme Q10
relative potency, inhibition of lipid peroxidation [3]: twice as potent as the next most effective antioxidant (EGCG); also recorded: two orders of magnitude more potent than the vitamin E varieties
inhibition of AP-1 activation [4]: at very low levels inhibits AP-1 activation
hydroxyl radical scavenging activity [5]: slightly more effective than green tea polyphenols and far more potent than glutathione or vitamin E
inhibition of TNF-α induced MMP 13 mRNA and protein induction [6]: inhibits TNF-α induced MMP 13 mRNA and protein induction
TNF alpha production normalized to cell viability [8]: effectively blocked UVB-induced inflammation in keratinocytes; also recorded: much more effective than dexamethasone or green tea polyphenols

SMILES: O=C(NO)c1ccccc1O [SHA, Salicylhydroxamate]
integrin expression (alpha-2, -3, -5) vs control [9]: increasing the integrin expression of keratinocytes
cornified envelope formation (terminal differentiation) [10]: induces terminal differentiation of keratinocytes, increases the formation of CE
PGE2 production normalized to cell viability (anti-inflammatory effect) [11]: potent anti-inflammatory effects
IC50 [12]: 60 nM
inhibition of tyrosinase activity ([12]; Thirty nanomolar SHA): over 30%
integrin expression (alpha-2, -3, -5) vs control [13]: increasing the integrin expression of keratinocytes and fibroblasts
MMP-9 inhibitory activity (in words) [7]: excellent and potent inhibitors of matrix metalloproteases
stimulation of collagen secretion compared to control [14]: significantly stimulated the collagen synthesis of fibroblasts

SMILES: NC(Cc1c[nH]c2ccccc12)C(=O)NO (stereo not drawn) [tryptophan hydroxamate]
MMP-9 inhibitory activity (in words) [7]: excellent and potent inhibitors of matrix metalloproteases
